# Values quoted from earlier work, collected in patent US20020177624A1, “Acetate-lactate buffering vaginal gel and for method of making same and treating bacterial vaginosis” (priority 2001, published 2002).
# Tested on: bacterial vaginosis
# Settings: oral administration
smiles,measurement,value
Cc1ncc([N+](=O)[O-])n1CCO [metronidazole],success of treatment of bacterial vaginosis,often highly successful
